Consider 64 compounds from PubChem BioAssay AID1626 (SRMLSC, 2009).

One may read the IC50 as the midpoint of a concentration-inhibition curve. The term IC90 denotes the concentration at which the effect reaches the 90% level. The CC50 is the concentration at which the toxic effect on the cells reaches its halfway point. A high value points to better tolerance by the cells.

This assay relates to M. tuberculosis H37Rv growth inhibition. Put plainly: M. tuberculosis H37Rv growth inhibitors, H37Rv strain (AID 1626). The settings on record: for IC90: measured here: IC90 against H37Rv; for CC50: measured here: Vero cell cytotoxicity.

Bounds are passed on as bounds.

For the compound `O=C(Nc1nnc(C2=COCCO2)o1)c1ccc(Cl)cc1`, the IC50 is 2.71 µM, the IC90 was found to be 4.41 µM and the CC50 was over 40 µM.

In the case of `CC1CCCC(NC(=O)COC(=O)c2sc3ccccc3c2Cl)C1C` (stereo unspecified), the IC50 is 7.47 µM and the IC90 was over 100 µM.

`Cc1ccc(C(=O)CC(=O)c2cc(Cl)ccc2O)cc1`: the IC50 was 3.48 µM, the IC90 turned out to be 4.67 µM and the CC50 amounted to 20.2 µM.

For the compound `Cc1ccccc1NC(=O)c1ccc(OCC(=O)Nc2ccccc2F)cc1`, the IC50 is 76 µM and the IC90 was over 100 µM.

With `CC(C)NCC(O)Cn1c2c(c3ccccc31)CCc1c-2cnn1-c1ccccc1` (stereo unspecified), the IC50 is 10.1 µM, the IC90 came to 13.6 µM and the CC50 was determined as 7.97 µM.

Take `O=C(CSc1nc2ccc(Nc3nc(N4CCOCC4)nc(N4CCOCC4)n3)cc2s1)NCc1ccco1`: the IC50 is 36.5 µM, the 90% effect concentration (IC90) was over 100 µM and the cytotoxic concentration (CC50) is over 40 µM.

In the case of `O=C(CSc1ccccn1)Nc1ccc2c(c1)oc1ccccc12`, the IC50 is under 0.195 µM and the IC90 is over 100 µM.

On to `O=C1C(NS(=O)(=O)c2cccs2)=C(N2CCN(c3cccc(C(F)(F)F)c3)CC2)C(=O)c2ccccc21`, for which the IC50 is 4.12 µM, the IC90 worked out at 7.38 µM and the cytotoxic concentration (CC50) is over 40 µM.

Consider `Cc1[nH]n2c(=O)cc(-c3ccc([N+](=O)[O-])cc3)nc2c1-c1ccccc1`, for which the IC50 was 0.747 µM, the IC90 is 1.43 µM and the CC50 is 35.1 µM.

Consider `O=C(NCc1ccco1)c1cnn2c1NC(c1ccc(Br)cc1)CC2C(F)(F)F` (stereo unspecified), for which the IC50 was 1.51 µM, the IC90 was 1.71 µM and the CC50 is over 40 µM.

Consider `O=c1c2ccccc2nc(-c2ccc(Cl)c(Cl)c2)n1O`, for which the IC50 was 43.8 µM, the IC90 was over 100 µM and the CC50 was over 40 µM.

Consider `NS(=O)(=O)c1ccc(CCNC(=O)c2ccc3nc4ccc(Cl)cc4c(=O)n3c2)cc1`, for which the IC50 was 10.1 µM and the IC90 turned out to be 30.3 µM.

As to `Cc1ccc(NC(=O)NC2CCCCC2)cc1Cl`, the IC50 was 6.04 µM, the IC90 is over 100 µM and the CC50 is over 40 µM.

With `N#C/C(=C\c1c[nH]c2ccccc12)C(=O)Nc1ncc(Cc2ccc(Cl)cc2Cl)s1`, the IC50 was 11.7 µM, the IC90 was 13.5 µM and the CC50 is over 40 µM.

In the case of `COc1ccc(OC)c(C2C3=C(N=c4s/c(=C\c5cccc(O)c5)c(=O)n42)c2ccccc2CC3)c1` (stereo unspecified), the IC50 was 11.1 µM, the IC90 was over 100 µM and the CC50 stood at 19.9 µM.

Consider `CSc1ccc(N=Nc2c(C)[nH]n(C)c2=O)cc1`, for which the IC50 was 7.43 µM, the IC90 is over 100 µM and the CC50 is over 40 µM.

For `CCCOC(=O)c1ccc(NC(=O)C2CCCO2)cc1` (stereo unspecified), the IC50 was 10.3 µM and the concentration for an effect of 90% (IC90) is over 100 µM.

`COc1cc(-c2nnc(SCC(=O)OC3CCCCC3)o2)cc(OC)c1OC`: the IC50 is under 0.195 µM and the IC90 amounted to 1.78 µM.

Consider `Cc1c(CN2CCC(CO)(CCOc3ccccc3)CC2)[nH]c2ccc(Cl)cc12`, for which the IC50 is 4.57 µM, the IC90 came out at 5.33 µM and the CC50 was 15.6 µM.

For `CCOCC(=O)Nc1ccc(Br)c(C)c1`, the IC50 was 9.8 µM and the IC90 was over 100 µM.

With `O=c1[nH][nH]c(-c2ccccc2O)c1C(C[N+](=O)[O-])c1ccc(Br)cc1` (stereo unspecified), the IC50 was 11.2 µM, the IC90 worked out at 24.5 µM and the CC50 turned out to be 18.2 µM.

As for `CCCOC(=O)c1ccc(NC(=O)CCOc2ccccc2)cc1`, the IC50 was 0.622 µM and the IC90 was over 100 µM.

As for `COC(=O)c1ccccc1Sc1ncnc2onc(C)c12`, the IC50 was 15.3 µM, the IC90 was 30.7 µM and the CC50 is over 40 µM.

Take `OCC#CCSc1nnc(-c2ccc(Br)cc2)o1`: the IC50 is 0.543 µM and the IC90 turned out to be 17.9 µM.

Turning to `COC(=O)c1cccc(OC(N)=O)c1`, the IC50 is 72.9 µM and the IC90 was over 100 µM.

Take `Cc1oc2c(c1C(=O)Nc1cccc3ccccc13)CCCC2`: the IC50 is 3.58 µM and the IC90 is 7.71 µM.

On to `COc1ccc2c(c1)CCc1c-2nc2ccccc2c1N1CCOCC1`, for which the IC50 was 11.5 µM, the IC90 is 18.6 µM and the CC50 is over 40 µM.

Take `Cc1cc(OCCCCCn2ccnc2)cc(C)c1Cl`: the IC50 was 4.17 µM, the IC90 turned out to be 5.19 µM and the CC50 was 24.6 µM.

For `O=C(Nc1nnc(-c2ccccc2)o1)c1cc(Cl)sc1Cl`, the IC50 was 2.4 µM, the IC90 is over 100 µM and the CC50 is over 40 µM.

Take `Cc1ccc(-c2cc(C(F)F)n3ncc(C(=O)Nc4c(C)nn(Cc5ccccc5Cl)c4C)c3n2)cc1`: the IC50 is 2.16 µM, the IC90 was over 100 µM and the CC50 amounted to 24.4 µM.

With `COc1ccc(-c2nnc(NC(=O)C3=COCCO3)o2)cc1`, the IC50 is 12.7 µM, the IC90 was determined as 19.7 µM and the CC50 is over 40 µM.

Consider `Nc1nc(-c2cccc(F)c2)cs1`, for which the IC50 is 11.2 µM and the IC90 is over 100 µM.

On to `Cc1nn(-c2ccccc2)nc1C(=O)c1c(C)[nH]n(-c2ccccc2)c1=O`, for which the IC50 is 8.35 µM, the IC90 is 13.6 µM and the CC50 came to 37 µM.

Turning to `Cc1[nH]n(-c2ccc(Cl)cc2)c(=O)c1N=Nc1cccnc1`, the IC50 was 3.39 µM, the IC90 is over 100 µM and the CC50 amounted to 36.1 µM.

Consider `C(=C\c1nccc2c1[nH]c1ccccc12)/c1ccccc1`, for which the IC50 was 8.41 µM, the IC90 is 11.3 µM and the CC50 was 29.4 µM.

In the case of `COc1cc(OC)c2c(-c3ccccc3)cc(=O)oc2c1C(CCN1CCCCC1)c1ccc2c(c1)OCO2` (stereo unspecified), the IC50 is 9.18 µM, the IC90 worked out at 12.8 µM and the CC50 is 13.6 µM.

As for `O=C(Nc1nnc(-c2ccc(Cl)cc2)o1)C1CCCCC1`, the IC50 was 3.32 µM, the IC90 is over 100 µM and the CC50 was over 40 µM.

As to `Nc1cnc(-c2ccccc2)nc1Cl`, the IC50 was 7.27 µM and the IC90 is over 100 µM.

On to `COC(=O)CSc1nnc(-c2ccc(OC)c(OC)c2)o1`, for which the IC50 was 1.43 µM and the IC90 was determined as 5.53 µM.

Turning to `CCC(=O)Nc1ccc2ccccc2c1`, the half-inhibitory concentration (IC50) was 46.5 µM and the IC90 is over 100 µM.

On to `CCn1c(=O)c(C(=O)Nc2nc3ccccc3[nH]2)c(O)c2ccccc21`, for which the IC50 was 0.388 µM, the IC90 worked out at 0.423 µM and the CC50 is over 40 µM.

As to `CSc1nc2nc(C)c(C/C=C/c3ccccc3)c(=O)n2[nH]1`, the IC50 is 11.4 µM and the IC90 was over 100 µM.

As for `Cc1cnc(C(=O)Nc2nnc(SCc3c(Cl)cccc3Cl)s2)cn1`, the IC50 was 8.19 µM, the IC90 is over 100 µM and the CC50 was determined as 35.5 µM.

On to `CC(=O)Nc1ccc(NC(=O)c2ccc(C3SCC(=O)N3CCc3ccccc3)cc2)cc1` (stereo unspecified), for which the concentration for an effect of 90% (IC90) is over 100 µM.

For `O=C1N=C2N(CCN3CCCCC3)c3ccccc3N2/C1=C\c1ccc([N+](=O)[O-])o1`, the IC50 is 1.56 µM, the IC90 was determined as 1.6 µM and the CC50 came out at 4.9 µM.

In the case of `O=C(c1ccc(F)cc1)C(CN1CCOCC1)c1ccccc1` (stereo unspecified), the IC50 was 6.14 µM, the IC90 came out at 7.01 µM and the CC50 came out at 20.7 µM.

In the case of `COc1ccc(N2CCN(Cc3nc(N)nc(Nc4ccc(C)c(Cl)c4)n3)CC2)cc1`, the IC50 is 0.546 µM, the IC90 is 1.71 µM and the CC50 is over 40 µM.

With `OC(CNCCc1ccc(C(F)(F)F)cc1)COc1cccc2ccccc12` (stereo unspecified), the IC50 was 5.71 µM, the IC90 worked out at 6.42 µM and the CC50 was 13.7 µM.

Take `O=C(CSCC(=O)Nc1ccc2ccccc2c1)NCc1ccccc1`: the IC50 is 35.4 µM and the IC90 was over 100 µM.

On to `O=C(/C=C/c1ccc(OCCCF)cc1)Nc1ccnc(-c2ccncc2)n1`, for which the IC50 was 84.1 µM, the IC90 was over 100 µM and the CC50 is over 40 µM.

With `C(=C\c1nc(N2CCCCCC2)c2ccccc2n1)/c1ccccc1`, the IC50 is 8.43 µM, the IC90 came out at 11.1 µM and the CC50 is 37.5 µM.

As for `Cc1ccc(-c2c[n+](CC(=O)N3c4ccccc4Sc4ccccc43)c3n2CCC3)cc1`, the IC50 is 7.87 µM and the IC90 was 20.6 µM.

On to `S=c1[nH]cnc2scc(-c3ccc(Br)cc3)c12`, for which the IC90 is over 100 µM and the half-maximal cytotoxic concentration (CC50) was determined as 34.8 µM.

In the case of `CCCn1c(NC(=O)c2ccccc2)nc2ccccc21`, the IC50 was 3.89 µM, the IC90 was over 100 µM and the CC50 was over 40 µM.

As to `Cc1ccc(C(=O)Oc2oc(-c3ccccc3)nc2C=Nc2ccc(N(C)C)cc2)cc1`, the CC50 was over 40 µM.

For `O=C(NCCc1ccc(Cl)cc1)C1CCC(CNc2c(N3CCCCC3)c(=O)c2=O)CC1` (stereo unspecified), the IC50 was 11.8 µM and the IC90 stood at 13.4 µM.

Turning to `O=[N+]([O-])c1cc(O)c2ncccc2c1`, the IC50 was 2.71 µM, the IC90 was determined as 3.39 µM and the CC50 was 7.36 µM.

`CC(=O)/C=C(\C)Nc1ccccc1O`: the IC50 was 0.992 µM, the IC90 is 2.44 µM and the CC50 is over 40 µM.

Turning to `O=C(Nc1ccccc1OC(=O)c1ccc(Cl)cc1)c1ccc(Cl)cc1`, the IC50 was 12 µM and the IC90 stood at 18.6 µM.

Regarding `CC(C)C(=O)N1CCN(c2ccc(NC(=O)c3ccc4c(c3)OCCO4)cc2Cl)CC1`, the IC90 was over 100 µM and the CC50 amounted to 19.8 µM.

With `Cc1cc(=O)[nH]c(-n2nc(C)c(Oc3ccccc3O)c2C)n1`, the IC50 is 7.72 µM, the IC90 was over 100 µM and the CC50 is over 40 µM.

With `CCOc1ccc2nc(NC(=O)c3ccccn3)sc2c1`, the IC50 was 1.36 µM, the IC90 was determined as 3.07 µM and the CC50 is 15.1 µM.

For the compound `Brc1c(CSc2nncc3ccccc23)nc2ccccn12`, the IC50 is 5.58 µM, the IC90 turned out to be 16.3 µM and the CC50 was over 40 µM.

Take `Clc1cccc2c1Sc1ccccc1CC2N1CCNCC1` (stereo unspecified): the IC50 was 3.12 µM, the IC90 was 6.58 µM and the CC50 stood at 11.2 µM.
